Measured values from PMC10674233, “Design, Synthesis, In Vitro, and In Silico Studies of New N^5-Substituted-pyrazolo[3,4-d]pyrimidinone Derivatives as Anticancer CDK2 Inhibitors” (Pharmaceuticals, 2023).

What was measured:
HepG2 cells = test: MTT antiproliferative assay, HepG2 cells; format: cell-based; conditions: Homo sapiens, HepG2 HCC cell line, triplicate, read-out: IC50 ± SD HepG2
HCT116 cells = test: MTT antiproliferative assay, HCT116 cells; format: cell-based; conditions: Homo sapiens, HCT-116, HCT116 CRC cell line, triplicate, read-out: IC50 ± SD HCT116
CDK2/CyclinA2 = molecular target: T1, CDK2/CyclinA2 (Homo sapiens, UniProt P24941); test: In vitro enzymatic CDK2 inhibition assay (Kinase-Glo luminescence kit); format: biochemical; conditions: triplicate; read-out: CDK2 Inhibition IC50 ± SD
T1 construct: purchased BPS Bioscience Inc. (San Diego, CA, USA)
Method: . […]. In vitro evaluation of CDK2 inhibition was determined using a commercially available assay kit from BPS Bioscience Inc. (San Diego, CA, USA) as described in the Supplementary Information. […]
serum. After that, the reconstituted MTT was added in an amount equal to 10% of the culture medium volume. Cultures were returned to incubator for 2-4 hours depending on cell type and maximum cell density. Incubation times should be consistent when making comparisons. After the incubation period, cultures were removed from incubator and the resulting formazan crystals were dissolved by adding an amount of MTT Solubilization Soluti on [M-8910] equal to the original culture medium volume. Occasionally, especially in dense cultures, pipetting up and down [trituration] may be required to completely dissolve the MTT formazan crystals.
Absorbance was measured spectrophotometrically at a wavelength of 570 nm. The background absorbance of multiwell plates was measured at 690 nm and subtract from the 570 nm […]
2.2. CDK2/Cyclin A2 inhibitory activity
Promega Kinase-Glo Plus luminescence kinase assay protocol was adopted as reported. […]
reaction by adding 20 μl of diluted CDK2/CyclinA2 enzyme to the wells designated “Positive Control” and "Test Inhibitor Control". […] Measure luminescence using the microplate reader. “Blank” value is subtracted from all readings. […]

[1] = system: normal human fibroblast cell line (WI-38); test: MTT cytotoxicity assay, normal human fibroblast cell line WI-38; format: cell-based; conditions: WI-38 normal human fibroblasts, read-out: IC50 ± SD WI-38

Row | IC50 (HepG2 cells) | melting point | IC50 (HCT116 cells) | IC50 (CDK2/CyclinA2) | Structure (SMILES) | IC50 [1]
1 | 87.3 ± 4.42 µM | 220 to 225 °C | 26.4 ± 1.17 µM |  | COc1cccc(NC(=O)Cn2c(C)nc3c(cnn3-c3ccccc3)c2=O)c1 [Compound 4c] | 
2 | 0.58 ± 0.03 µM |  | 1.09 ± 0.05 µM | 0.21 ± 0.01 µM | Cc1nc2c(cnn2-c2ccccc2)c(=O)n1CC(=O)Nc1ccc(F)cc1 [Compound 4a] | 58.6 µM
3 | 26.2 ± 1.33 µM |  | 35.9 ± 1.59 µM |  | Cc1nc2c(cnn2-c2ccccc2)c(=O)n1CC(=O)c1ccc(Cl)cc1 [Compound 3a] | 
4 | 58 ± 2.94 µM |  | 10.9 ± 0.48 µM |  | CCOC(=O)Cn1c(C)nc2c(cnn2-c2ccccc2)c1=O [Compound 2b] | 
5 | 1.9 ± 0.1 µM |  | 10.8 ± 0.48 µM |  | Cc1ccc(C(=O)Cn2c(C)nc3c(cnn3-c3ccccc3)c2=O)cc1 [Compound 3b] | 
6 | 16.1 ± 0.81 µM |  | 41.2 ± 1.83 µM |  | Cc1nc2c(cnn2-c2ccccc2)c(=O)n1CC(=O)Nc1cccc2ccccc12 [Compound 4e] | 
7 | 2.57 ± 0.13 µM |  | 3.38 ± 0.15 µM | 0.96 ± 0.05 µM | Cc1nc2c(cnn2-c2ccccc2)c(=O)n1CC(=O)Nc1ccc(Cl)cc1 [Compound 4b] | 48.5 µM
8 | 32.9 ± 1.67 µM |  | 19.4 ± 0.86 µM |  | COC(=O)Cn1c(C)nc2c(cnn2-c2ccccc2)c1=O [Compound 2a] | 
